Experimental data reported in PubChem BioAssay (NCI).
≈ marks a conversion by molar mass, not a printed value.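 The compound was tested at five concentrations on cells cultured in 96-well plates, with a 48-hour exposure period. Abbreviation: GI50, concentration required for 50% inhibition of growth. Definition used: TGI = concentration required for complete inhibition of growth.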

Columns and labels:
Test in all cases: growth of human tumour cells (NCI), 48 h
A549 NSCLC = system: A549 NSCLC
HCT-15 colon = system: HCT-15 colon
HT29 colon = system: HT29 colon
MCF7 breast = system: MCF7 breast
NCI-H522 lung = system: NCI-H522 lung
NCI/ADR-RES ovarian = system: NCI/ADR-RES ovarian
RXF 393 renal = system: RXF 393 renal
SF-268 CNS = system: SF-268 CNS
HOP-92 NSCLC = system: HOP-92 NSCLC
SF-539 CNS = system: SF-539 CNS

SMILES | TGI (A549 NSCLC) | TGI (HCT-15 colon) | TGI (HT29 colon) | TGI (MCF7 breast) | TGI (NCI-H522 lung) | TGI (NCI/ADR-RES ovarian) | TGI (RXF 393 renal) | TGI (SF-268 CNS) | TGI (HOP-92 NSCLC) | TGI (SF-539 CNS) | GI50 (HCT-15 colon) | GI50 (HOP-92 NSCLC) | GI50 (HT29 colon) | GI50 (MCF7 breast) | GI50 (RXF 393 renal) | GI50 (SF-539 CNS)
CC(C)C(Sc1nc(N)nc2nc[nH]c12)C(=O)O (stereo not drawn) | > 100 µM | > 100 µM | > 100 µM | > 100 µM | > 100 µM | > 100 µM | > 100 µM | > 100 µM |  |  |  |  |  |  |  | 
O=C(OC1C#CCSCC#C/C=C\1)c1ccc2c(c1)C(=O)c1ccccc1C2=O (stereo not drawn) | > 100 µM | > 100 µM | > 100 µM | > 100 µM | 62.7 µM | > 100 µM | 47.1 µM | 69.1 µM | 13.7 µM | 40.7 µM |  |  |  |  |  | 
O=C(O)c1ccccc1Sc1ccc(C=C2NC(=S)N(c3ccccc3)C2=O)s1 |  | > 100 µM | > 100 µM | > 100 µM | 38.9 µM | > 100 µM | > 100 µM | > 100 µM |  |  |  |  |  |  |  | 
c1ccc(-c2cc(-c3ccccc3)nc(-c3ccncc3)c2)cc1 | > 100 µM | > 100 µM |  | > 100 µM | > 100 µM | > 100 µM | > 100 µM | > 100 µM |  |  |  |  |  |  |  | 
O=C1OCc2nc3c(c(-c4ccccc4C(F)(F)F)c21)C(=O)OC3 | > 100 µM | > 100 µM |  |  | > 100 µM |  | > 100 µM | > 100 µM | > 100 µM | > 100 µM |  |  |  |  |  | 
O=[N+]([O-])c1ccc(N=P(c2ccccc2)(c2ccccc2)c2ccccc2)n2nnnc12 | > 100 µM | > 100 µM | > 100 µM |  | > 100 µM |  | > 100 µM | > 100 µM | 67.5 µM | 50.9 µM |  |  |  |  |  | 
COc1cc2c(cc1C)NC(=O)/C2=C/c1c(Cl)[nH]c2ccccc12 | > 100 µM | 14.6 µM | 14.4 µM | 16.1 µM | 20.5 µM |  | 24.7 µM | 17.7 µM | 25 µM | 4.15 µM |  |  |  |  |  | 
Cc1c(CCCl)c(Cl)n2c(nc3ccccc32)c1C#N | > 100 µM | 1.98 µM | 4.35 µM | 5.28 µM | 1.46 µM |  | 3 µM | 11.5 µM | 2.99 µM | 2.81 µM |  |  |  |  |  | 
O=C1CC2(CCN(Cc3ccccc3)CC2)C(=O)N1N1CCCCC1 | > 100 µM | > 100 µM | > 100 µM | > 100 µM | > 100 µM | > 100 µM | > 100 µM | > 100 µM |  | > 100 µM |  |  |  |  |  | 
COC(=O)[C@@H]1CN(C(=O)Cc2ccccc2)C(=O)N1 | > 100 µM |  | > 100 µM |  | > 100 µM | > 100 µM | > 100 µM | > 100 µM | > 100 µM | > 100 µM |  |  |  |  |  | 
CC/C(CC(=O)CCC(=O)Nc1ccc(C)c(C)c1)=N\NC(=O)c1cc2ccccc2cc1O |  | > 100 µM | > 100 µM |  |  |  | 66.7 µM | > 100 µM | 91.3 µM |  |  |  |  |  |  | 
Cc1c2ccncc2c(C)c2c1[nH]c1ccc(O)cc12 | 0.397 µg/mL | 0.361 µg/mL | 1.23 µg/mL | 0.338 µg/mL | 0.172 µg/mL |  |  |  | 0.579 µg/mL | 1.29 µg/mL | 0.0107 µg/mL (≈ 0.0409 µM) | 0.0448 µg/mL (≈ 0.171 µM) | 0.185 µg/mL (≈ 0.704 µM) | 0.0319 µg/mL (≈ 0.122 µM) | 0.102 µg/mL (≈ 0.387 µM) | 0.263 µg/mL (≈ 1 µM)
CC(=O)N(C(=O)CC(=O)N1N=C(C)C(N=Nc2cccc([N+](=O)[O-])c2)C1=O)c1ccc(Cl)cc1 (stereo not drawn) | > 10 µM | > 10 µM | > 10 µM | > 10 µM | > 10 µM | > 10 µM |  | > 10 µM | > 10 µM | > 10 µM |  |  |  |  |  | 
Cc1cc2c3ccccc3n3c2c2c1OC1(C)CCC(C2C1)C3(C)C (stereo not drawn) | > 25 µM | > 25 µM | > 25 µM |  | > 25 µM |  |  | > 25 µM | > 25 µM | > 25 µM |  |  |  |  |  | 
COc1ccc(N2C(=O)[C@@H]3[C@@H]4CC(C)CC[C@@H]4c4c([nH]c5ccccc45)[C@@H]3C2=O)cc1 (stereo partly drawn) | > 68.3 µM | > 50.2 µM | > 100 µM |  | > 55 µM |  |  | 37.9 µM | 23 µM | 25.9 µM |  |  |  |  |  | 
Cc1ccc(-c2ccc3c(c2)Sc2ccccc2O3)n1C | > 100 µM | > 100 µM |  |  | 0.373 µM | 12.6 µM | 11.4 µM | > 33.9 µM | > 100 µM |  |  |  |  |  |  | 
O=C1c2ccccc2CC12Cc1ccc3c(c1C2=O)CCCC3 (stereo not drawn) | > 100 µM | > 100 µM | > 100 µM | > 100 µM | > 100 µM | > 100 µM | 23.9 µM | > 100 µM |  | > 100 µM |  |  |  |  |  | 
COC(=O)CC(=O)OC1C[C@@H]2CCC3C(C)(C)CCC[C@]3(C)C23CC[C@@]1(C)C3 (stereo partly drawn) | 65.1 µM | 36.1 µM | 35.1 µM |  | 25.7 µM |  | 37.2 µM | 35.9 µM | 31.9 µM | 39.1 µM |  |  |  |  |  | 
CCOC(=O)c1c(NS(=O)(=O)c2ccccc2)sc2c1CCCC2 | > 100 µM | > 100 µM | > 100 µM | > 100 µM |  | > 100 µM | > 100 µM | > 100 µM |  | > 100 µM |  |  |  |  |  | 
COc1cccc(C2c3cc4c(cc3OC(NNS(=O)(=O)c3ccc(C)cc3)C2C)OCO4)c1O (stereo not drawn) | > 100 µM | > 100 µM | 47.1 µM | 51.2 µM | 35.9 µM |  | 70.9 µM | > 100 µM | 76.3 µM | 51.8 µM |  |  |  |  |  | 
CN(C)CCCn1c(-c2ccc(Br)cc2)csc1=Nc1ccccc1 | 48.9 µM | 71 µM |  | 54 µM |  | 35.7 µM | 29.8 µM | 33.6 µM | > 100 µM | 34 µM |  |  |  |  |  | 
CCN(CC)C(=O)Cc1[nH][nH]c(=O)c1C(=O)N(CC)CC | > 100 µM | > 100 µM | > 100 µM |  | > 100 µM |  | > 100 µM | > 100 µM | > 100 µM | > 100 µM |  |  |  |  |  | 
c1cc(CSP234N5CCN2CCN3CCN4CC5)cc(CSP234N5CCN2CCN3CCN4CC5)c1 | > 100 µM | 70.8 µM | 61 µM | 68.6 µM | 43.1 µM | > 100 µM |  | > 100 µM | 64.5 µM | 55.5 µM |  |  |  |  |  | 
C1CCC(CC2CCC(NC3=NCCO3)CC2)CC1 (stereo not drawn) | > 100 µM | 30.1 µM | 17.1 µM | 32.1 µM | 41.9 µM | 37.3 µM | 36.6 µM | 62.1 µM |  | 31.1 µM |  |  |  |  |  | 
